Holding throughout (assay type): cell-based
Assay [1] has as its target T1, Eukaryotic elongation factor 2 kinase (Homo sapiens) (UniProt O00418).
T1 sequence (whole entry): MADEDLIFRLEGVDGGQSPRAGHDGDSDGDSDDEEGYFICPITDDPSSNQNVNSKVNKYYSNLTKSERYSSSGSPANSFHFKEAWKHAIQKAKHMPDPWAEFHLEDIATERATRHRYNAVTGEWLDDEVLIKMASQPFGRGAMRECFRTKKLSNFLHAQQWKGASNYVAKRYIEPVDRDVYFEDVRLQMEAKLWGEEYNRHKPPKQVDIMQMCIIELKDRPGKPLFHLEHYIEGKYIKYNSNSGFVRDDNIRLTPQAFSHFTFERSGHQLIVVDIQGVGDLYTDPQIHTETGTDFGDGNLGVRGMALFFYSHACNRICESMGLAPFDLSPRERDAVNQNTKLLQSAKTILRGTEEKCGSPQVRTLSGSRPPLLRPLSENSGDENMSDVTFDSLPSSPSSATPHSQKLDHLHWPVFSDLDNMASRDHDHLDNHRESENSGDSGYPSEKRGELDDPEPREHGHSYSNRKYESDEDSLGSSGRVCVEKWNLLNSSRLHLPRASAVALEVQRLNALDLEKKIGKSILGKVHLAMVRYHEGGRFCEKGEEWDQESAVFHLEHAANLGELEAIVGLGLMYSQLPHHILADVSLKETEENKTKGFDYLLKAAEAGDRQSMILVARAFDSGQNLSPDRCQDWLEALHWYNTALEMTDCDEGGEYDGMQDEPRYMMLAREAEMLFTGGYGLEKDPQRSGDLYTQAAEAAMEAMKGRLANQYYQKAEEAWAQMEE
The assay can be described thus: Inhibition of eEF2K in human MDA-MB-231 cells assessed as decrease in phosphorylation of eEF2 at Thr56 residue at 5 uM incubated for 2 hrs by western blot analysis. On the technique in general: Immunoblotting shows a protein as a band on a membrane.

Assay [2] addresses T1, Eukaryotic elongation factor 2 kinase (Homo sapiens). The assay can be described thus: Inhibition of eEF2K in human MDA-MB-231 cells assessed as decrease in phosphorylation of eEF2 at Thr56 residue at 2.5 uM incubated for 2 hrs by western blot analysis.
For assay [3] the target is unchanged. The assay can be described thus: Inhibition of eEF2K in human MDA-MB-231 cells assessed as decrease in phosphorylation of eEF2 at Thr56 residue at 20 uM incubated for 2 hrs by western blot analysis.

Calls of active or inactive are those of the source. The rule behind the calls is not given here.

For `CCc1cccc2c3c([nH]c12)C(CC)(CC(=O)N1CCN(C)CC1)OCC3` (stereo not given), the inhibition entry in assay [1] and in assay [2] was “Active” in each case. `CCc1cccc2c3c([nH]c12)C(CC)(CC(=O)NCCN1CCCCC1)OCC3` (stereo not given): the inhibition result in assay [1] and in assay [2] was “Active” throughout. Consider `CCc1cccc2c3c([nH]c12)C(CC)(CC(=O)N1CCCCC1)OCC3` (stereo not given), for which, in assay [3], the inhibition entry was “Active”.

For the origin of these results see ChEMBL document CHEMBL5104155, “Novel etodolac derivatives as eukaryotic elongation factor 2 kinase (eEF2K) inhibitors for targeted cancer therapy” (RSC Med Chem, 2022).
